Laboratory results published in patent US20250122182A1 (Isosterix, Inc., priority 2023, published 2025).

Target: Recombinant KAT6A/MOZ (488-778) protein (Homo sapiens (Human), UniProt Q92794)
Assay: KAT6A AlphaLISA Inhibition Screening Assay
Type: biochemical
Conditions: for inhibition at 1 µM: read-out: Average Kat6A % inhibition @ 1 μM; for inhibition at 1 µM / Average Kat6A % inhibition @ 1 μM: 1 μM test compound; for inhibition at 10 µM: read-out: Average Kat6A % inhibition @ 10 μM; for inhibition at 10 µM / Average Kat6A % inhibition @ 10 μM: 10 μM test compound
Experimental: The Kat6a inhibitory activity of test compounds was determined using an Alpha Screen-based detection method. The assay reactions were conducted in a volume of 10 μL in Alpha Plate, White 384 well plate (cat #6008280, Perkin Elmer). The enzymatic reactions were performed in assay buffer pH 8.0 (50 mM Tris-HCl, 0.1 mM EDTA, 0.01% Tween-20, 1 mM Dithiothreitol, 0.1% BSA (fatty acid free) and 330 nM TSA (Trichostatin A)). 10 μL reaction volume consisting of 25 nM of Recombinant KAT6A/MOZ (488-778) protein (Active motif, Catalog #81223), 400 nM Acetyl coenzyme A (Catalog #A2056, Sigma), 200 nM of Histone H3 peptide [(amino acids 1-21), biotin-labeled (BPS Biosciences, Catalog #52011)]. Test compounds were screened at different doses starting with 10 μM, 3 fold dilution and 10 point Dose response curve. Enzyme and compounds solution were pre-incubated in assay plate for 60 or 10 min at room temperature then substrate and Acetyl coenzyme A solution were added to the plate. After addition, the plate was sealed with adhesive seals and incubated for 120 minutes at room temperature.
After 120 minutes of incubation, […] of AlphaLISA anti-acetyl-Lysine acceptor beads (Perkin Elmer, Catalog #AL143C) were added to the plate and it was incubated for 60 minutes at room temperature. Then […] of Alpha Streptavidin donor beads (Perkin Elmer, Catalog #6760002S) were added to the plate which was further incubated for 60 minutes at room temperature. After incubation, the alpha signal was recorded by using Perkin Elmer Envision multi-mode reader. Percent inhibition of enzyme activity by test compounds were determined relative to vehicle control.

Recombinant KAT6A/MOZ (488-778) protein, sequence (Q92794 488-778): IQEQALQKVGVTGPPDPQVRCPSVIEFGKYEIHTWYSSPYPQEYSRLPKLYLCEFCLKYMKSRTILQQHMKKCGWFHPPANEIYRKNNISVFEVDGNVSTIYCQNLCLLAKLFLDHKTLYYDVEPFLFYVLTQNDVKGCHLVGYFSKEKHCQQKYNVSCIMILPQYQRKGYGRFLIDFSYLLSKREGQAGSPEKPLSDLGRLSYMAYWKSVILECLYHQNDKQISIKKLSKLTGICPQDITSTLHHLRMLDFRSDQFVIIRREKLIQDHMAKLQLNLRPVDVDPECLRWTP

| Compound | inhibition at 1 µM [%] | inhibition at 10 µM [%] | Average Kat6A % inhibition @ 1 μM [%] | Average Kat6A % inhibition @ 10 μM [%] |
| --- | --- | --- | --- | --- |
| CCc1ccc(OC)c(S(=O)(=O)Nc2noc3cc(Oc4ncc(CN[S+]([O-])C(C)(C)C)o4)cc(OC)c23)c1 (stereo not drawn) [Syn. Ex. 98, N-(6-((5-(((tert-Butylsulfinyl)amino)methyl)oxazol-2-yl)oxy)-4-methoxybenzo[d]isoxazol-3-yl)-5-ethyl-2-methoxybenzenesulfonamide] | 78 | 92 |  |  |
| COC(=O)NCc1cnn(Cc2cc(OC)c3c(NS(=O)(=O)c4cccc5cc(C)cnc45)noc3c2)c1 [Syn. Ex. 129, methyl ((1-((4-methoxy-3-((3-methylquinoline)-8-sulfonamido)benzo[d]isoxazol-6-yl)methyl)-1H-pyrazol-4-yl)methyl)carbamate] |  |  | 102 | 102 |
| COC(=O)NCc1cnn(Cc2cc3onc(NS(=O)(=O)c4cc5c(cc4OC)CCC5)c3cc2OC)c1 [Syn. Ex. 147, methyl ((1-((5-methoxy-3-((6-methoxy-2,3-dihydro-1H-indene)-5-sulfonamido)benzo[d]isoxazol-6-yl)methyl)-1H-pyrazol-4-yl)methyl)carbamate] |  |  | 101 | 101 |
| C#CC(=O)NCc1cnn(Cc2cc(OC)c3c(NS(=O)(=O)c4cc(CC)ccc4OCCO)noc3c2)c1 [Syn. Ex. 65, N-((1-((3-((5-ethyl-2-(2-hydroxyethoxy)phenyl)sulfonamido)-4-methoxybenzo[d]isoxazol-6-yl)methyl)-1H-pyrazol-4-yl)methyl)propiolamide] | 100 | 100 |  |  |
| COc1ccccc1S(=O)(=O)Nc1noc2cc(Cn3cc(CNS(C)(=O)=O)cn3)cc(OC)c12 [Syn. Ex. 6, 2-methoxy-N-(4-methoxy-6-((4-(methylsulfonamidomethyl)-1H-pyrazol-1-yl)methyl)benzo[d]isoxazol-3-yl) benzenesulfonamide] |  |  | 99 | 100 |
| C=C(F)C(=O)NCc1cnn(Cc2cc(OC)c3c(NS(=O)(=O)c4cc(CC)ccc4OCc4nn[nH]n4)noc3c2)c1 [Syn. Ex. 72, N-((1-((3-((2-((2H-tetrazol-5-yl)methoxy)-5-ethylphenyl)sulfonamido)-4-methoxybenzo[d]isoxazol-6-yl)methyl)-1H-pyrazol-4-yl)methyl)-2-fluoroacrylamide] | 100 | 100 |  |  |
| C=C(F)C(=O)NCc1cnn(Cc2cc(OC)c3c(NS(=O)(=O)c4cc(CC)ccc4OCCNC(C)=O)noc3c2)c1 [Syn. Ex. 82, N-((1-((3-((2-(2-acetamidoethoxy)-5-ethylphenyl)sulfonamido)-4-methoxybenzo[d]isoxazol-6-yl)methyl)-1H-pyrazol-4-yl)methyl)-2-fluoroacrylamide] | 94 | 99 |  |  |
| C=C(F)C(=O)NCc1cnn(Cc2cc(OC)c3c(NS(=O)(=O)c4cc(C)ccc4OC)noc3c2)c1 [Syn. Ex. 89, 2-fluoro-N-((1-((4-methoxy-3-((2-methoxy-5-methylphenyl)sulfonamido)benzo[d]isoxazol-6-yl)methyl)-1H-pyrazol-4-yl)methyl)acrylamide] | 100 | 100 |  |  |
| N-[[2-[[4-methoxy-3-[(6-methoxyindan-5-yl)sulfonylamino]-1,2-benzoxazol-6-yl]oxy]thiazol-5-yl]methyl]carbamate [Syn. Ex. 148] |  |  | 115 | 117 |
| CCc1ccc(OCCC#N)c(S(=O)(=O)Nc2noc3cc(Cn4cc(CNC(=O)OC)cn4)cc(OC)c23)c1 [Syn. Ex. 83, methyl ((1-((3-((2-(2-cyanoethoxy)-5-ethylphenyl)sulfonamido)-4-methoxybenzo[d]isoxazol-6-yl)methyl)-1H-pyrazol-4-yl)methyl)carbamate] | 98 | 99 |  |  |
| C=C(F)C(=O)N(C)Cc1cnn(Cc2cc(OC)c3c(NS(=O)(=O)c4cc(CC)ccc4OC)noc3c2)c1 [Syn. Ex. 39, N-((1-((3-((5-ethyl-2-methoxyphenyl)sulfonamido)-4-methoxybenzo[d]isoxazol-6-yl)methyl)-1H-pyrazol-4-yl)methyl)-2-fluoro-N-methylacrylamide] | 92 | 100 |  |  |
| C=C(F)C(=O)NCc1cnn(Cc2cc(OC)c3c(NS(=O)(=O)c4cc(CC)ccc4OCCNC(=O)OC)noc3c2)c1 [Syn. Ex. 79, methyl (2-(4-ethyl-2-(N-(6-((4-((2-fluoroacrylamido)methyl)-1H-pyrazol-1-yl)methyl)-4-methoxybenzo[d]isoxazol-3-yl)sulfamoyl)phenoxy)ethyl)carbamate] | 99 | 100 |  |  |
| C=C(F)C(=O)NCc1cnn(Cc2cc(OC)c3c(NS(=O)(=O)c4cc(CC)ccc4OCCN4CCOC4=O)noc3c2)c1 [Syn. Ex. 78, N-((1-((3-((5-ethyl-2-(2-(2-oxooxazolidin-3-yl)ethoxy)phenyl)sulfonamido)-4-methoxybenzo[d]isoxazol-6-yl)methyl)-1H-pyrazol-4-yl)methyl)-2-fluoroacrylamide] | 100 | 100 |  |  |
| C=C(F)C(=O)NCc1cnc(Oc2cc(OC)c3c(NS(=O)(=O)c4cc(CC)ccc4OC)noc3c2)o1 [Syn. Ex. 99, N-((2-((3-((5-ethyl-2-methoxyphenyl)sulfonamido)-4-methoxybenzo[d]isoxazol-6-yl)oxy)oxazol-5-yl)methyl)-2-fluoroacrylamide] | 91 | 100 |  |  |
| C=C(F)C(=O)NCc1cnn(Cc2cc(OC)c3c(NS(=O)(=O)c4cc(CC)ccc4OCC(=O)O)noc3c2)c1 [Syn. Ex. 67, 2-(4-ethyl-2-(N-(6-((4-((2-fluoroacrylamido)methyl)-1H-pyrazol-1-yl)methyl)-4-methoxybenzo[d]isoxazol-3-yl)sulfamoyl)phenoxy)acetic acid] | 100 | 100 |  |  |
| CCc1ccc(OC)c(S(=O)(=O)Nc2noc3cc(Oc4ncc(CNC(=O)OC)o4)cc(OC)c23)c1 [Syn. Ex. 100, methyl ((2-((3-((5-ethyl-2-methoxyphenyl)sulfonamido)-4-methoxybenzo[d]isoxazol-6-yl)oxy)oxazol-5-yl)methyl)carbamate] | 92 | 100 |  |  |
| CCc1ccc(OC)c(S(=O)(=O)Nc2noc3cc(Cn4cc(CNC(N)=O)cn4)cc(OC)c23)c1 [Syn. Ex. 90, 5-ethyl-2-methoxy-N-(4-methoxy-6-((4-(ureidomethyl)-1H-pyrazol-1-yl)methyl)benzo[d]isoxazol-3-yl)benzenesulfonamide] | 99 | 100 |  |  |
| COC(=O)NCc1cnn(Cc2cc3onc(NS(=O)(=O)c4cc(F)ccc4OC)c3c3c2CCCO3)c1 [Syn. Ex. 124, methyl ((1-((9-((5-fluoro-2-methoxyphenyl)sulfonamido)-3,4-dihydro-2H-chromeno[8,7-d]isoxazol-5-yl)methyl)-1H-pyrazol-4-yl)methyl)carbamate] | 100 | 100 |  |  |
| CCc1ccc(OC)c(S(=O)(=O)Nc2noc3cc(Cn4cc(CNC(C)=O)cn4)cc(OC)c23)c1 [Syn. Ex. 8, N-((1-((3-((5-ethyl-2-methoxyphenyl)sulfonamido)-4-methoxybenzo[d]isoxazol-6-yl)methyl)-1H-pyrazol-4-yl)methyl) acetamide] | 99 | 100 |  |  |
| CCc1cnc(OC)c(S(=O)(=O)Nc2noc3cc(Cn4cc(CNC(=O)OC)cn4)cc(OC)c23)c1 [Syn. Ex. 121, methyl ((1-((3-((5-ethyl-2-methoxypyridine)-3-sulfonamido)-4-methoxybenzo[d]isoxazol-6-yl)methyl)-1H-pyrazol-4-yl)methyl)carbamate] |  |  | 100 | 94 |
| CCc1ccc(OC)c(S(=O)(=O)Nc2noc3cc(Cn4cc(CNC(=O)NC)cn4)cc(OC)c23)c1 [Syn. Ex. 91, 5-ethyl-2-methoxy-N-(4-methoxy-6-((4-((3-methylureido)methyl)-1H-pyrazol-1-yl)methyl)benzo[d]isoxazol-3-yl)benzenesulfonamide] | 99 | 100 |  |  |
| CCc1ccc(OC)c(S(=O)(=O)Nc2noc3cc(Cn4cc(CNC(=O)OC)cn4)c(F)c(OC)c23)c1 [Syn. Ex. 141, methyl ((1-((3-((5-ethyl-2-methoxyphenyl)sulfonamido)-5-fluoro-4-methoxybenzo[d]isoxazol-6-yl)methyl)-1H-pyrazol-4-yl)methyl)carbamate] | 104 | 91 |  |  |
| CCc1ccc(OC)c(S(=O)(=O)Nc2noc3cc(Oc4cccc(CNC(=O)OC)n4)cc(OC)c23)c1 [Syn. Ex. 106, methyl ((6-((3-((5-ethyl-2-methoxyphenyl)sulfonamido)-4-methoxybenzo[d]isoxazol-6-yl)oxy)pyridin-2-yl)methyl)carbamate] | 10 | 44 |  |  |
